Measured values from patent US11986471B2, “Compounds and methods of use” (Tango Therapeutics, Inc., priority 2018, dated 2024).

Experiments:
PRMT5 [1] = target: T1, PRMT5 (Homo sapiens, UniProt O14744); assay: PRMT5 IC50 assay in the presence of SAM as cofactor; format: biochemical
T1 construct: purchased Viva (custom protein)
Method in brief: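 Ki conversion: SAM arm, Ki=IC50/1.5; MTA arm, Ki=IC50/13.5. No-cofactor arm reported as IC50 only. Selectivity expressed as Ki(SAM)/Ki(MTA).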

PRMT5 [2] = target: T1, PRMT5; assay: PRMT5 IC50 assay with no cofactor; format: biochemical
Method in brief: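 Results given as IC50 (μM), from which Ki follows by dividing by 1.5 in the SAM condition or by 13.5 in the MTA condition. The ratio of SAM Ki to MTA Ki indicates MTA-cooperative preference.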

PRMT5 [3] = target: T1, PRMT5; assay: PRMT5 IC50 assay in the presence of MTA as cofactor; format: biochemical; conditions: for IC50: PRMT5, MTA as cofactor; for SAM/MTA Ratio: ratio between the Ki in the presence of SAM and the Ki in the presence of MTA
Method in brief: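 Three cofactor conditions tested for PRMT5 inhibition: none, MTA and SAM, each giving an IC50. For conversion to Ki, the MTA-condition IC50 is divided by 13.5 and the SAM-condition IC50 by 1.5, and the two Ki values are expressed as a SAM/MTA ratio.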

HAP1 MTAP-intact = assay: SDMA in-cell western assay, HAP1 MTAP-intact cell line; format: cell-based; conditions: Homo sapiens
Method in brief: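 HAP1 isogenic pair: endogenous MTAP vs MTAP-null. Readout SDMA by in-cell western; IC50 per line. Ratio ≥3 fold = MTAP-selective.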

HAP1 MTAP-deleted = assay: SDMA in-cell western assay, HAP1 MTAP-deleted cell line; format: cell-based; conditions: for IC50: Homo sapiens, HAP1 MTAP-deleted cell line; for MTAP Intact/Deleted Ratio: IC50 ratio HAP1 MTAP-intact / HAP1 MTAP-deleted
Method in brief: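 IC50 from SDMA in-cell western; HAP1 line lacking MTAP (null), paired isogenically with MTAP-intact HAP1 expressing endogenous MTAP.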

T1 sequence (O14744 whole entry): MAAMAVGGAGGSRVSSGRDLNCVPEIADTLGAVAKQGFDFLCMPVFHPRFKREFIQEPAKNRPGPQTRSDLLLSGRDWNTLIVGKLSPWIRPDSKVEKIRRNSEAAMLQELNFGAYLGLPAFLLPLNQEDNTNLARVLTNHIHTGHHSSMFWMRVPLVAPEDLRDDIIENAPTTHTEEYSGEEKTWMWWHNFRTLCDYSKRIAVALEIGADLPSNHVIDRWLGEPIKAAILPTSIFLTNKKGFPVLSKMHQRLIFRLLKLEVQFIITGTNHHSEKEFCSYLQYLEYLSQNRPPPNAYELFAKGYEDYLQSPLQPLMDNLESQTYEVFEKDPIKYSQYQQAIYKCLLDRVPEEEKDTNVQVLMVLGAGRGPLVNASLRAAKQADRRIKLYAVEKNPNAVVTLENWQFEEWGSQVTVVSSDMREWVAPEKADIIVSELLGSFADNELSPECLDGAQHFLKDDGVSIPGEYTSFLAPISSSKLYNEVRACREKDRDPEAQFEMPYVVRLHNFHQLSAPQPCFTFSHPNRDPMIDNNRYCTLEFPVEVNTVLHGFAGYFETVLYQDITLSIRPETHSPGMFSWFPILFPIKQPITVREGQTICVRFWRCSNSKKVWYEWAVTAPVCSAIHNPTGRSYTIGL
T1 sequence (Q9BQA1 whole entry partner): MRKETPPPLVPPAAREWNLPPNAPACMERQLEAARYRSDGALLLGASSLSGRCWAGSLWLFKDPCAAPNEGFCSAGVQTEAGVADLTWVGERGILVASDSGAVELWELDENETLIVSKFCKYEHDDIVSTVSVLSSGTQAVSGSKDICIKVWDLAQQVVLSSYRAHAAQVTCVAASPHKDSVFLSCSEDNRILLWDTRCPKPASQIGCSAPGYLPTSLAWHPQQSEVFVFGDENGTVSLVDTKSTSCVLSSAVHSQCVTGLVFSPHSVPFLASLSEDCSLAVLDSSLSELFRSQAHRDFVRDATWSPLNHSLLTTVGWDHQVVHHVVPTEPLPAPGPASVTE

Compound | IC50 (PRMT5 [1]) | IC50 (PRMT5 [2]) | IC50 (PRMT5 [3]) | IC50 (HAP1 MTAP-intact) | IC50 (HAP1 MTAP-deleted) | SAM/MTA Ratio (PRMT5 [3]) | MTAP Intact/Deleted Ratio (HAP1 MTAP-deleted)
CC(=O)N1CC(Nc2cc(C(=O)NC[C@H](O)CN3CCc4c(ccc(OCc5ocnc5C)c4C)C3)nc(C(C)C)n2)C1 [Compound 575, (S)-6-((1-acetylazetidin-3-yl)amino)-N-(2-hydroxy-3-(5-methyl-6-((4-methyloxazol-5-yl)methoxy)-3A-dihydroisoquinolin-2(1H)-yl)propyl)-2-isopropylpyrimidine-4-carboxamide] | 50 to 500 nM | ≥ 5000 nM | 50 to 500 nM | ≥ 10000 nM | 1000 to 10000 nM | A (a Ki ratio greater than or equal to 10 fold between the Ki in the presence of SAM and the Ki in the presence of MTA) | B* (an IC50 ratio greater than or equal to 3 fold but lower than 10 fold between the IC50 in the HAP1 MTAP-intact cell line and the HAP1 MTAP-deleted cell line)
COc1ccc(C(=O)N2CCc3cc(C(=O)NC[C@H](O)CN4CCc5cc(OCc6ocnc6C)c(F)cc5C4)ccc3C2)cc1 [Compound 577, N-[(2S)-3-[7-fluoro-6-[(4-methyloxazol-5-yl)methoxy]-3N-dihydro-1H-isoquinolin-2-yl]-2-hydroxy-propyl]-2-(4-methoxybenzoyl)-3N-dihydro-1H-isoquinoline-6-carboxamide] | 50 to 500 nM | 500 to 5000 nM | 50 to 500 nM | 1000 to 10000 nM | 1000 to 10000 nM | A (a Ki ratio greater than or equal to 10 fold between the Ki in the presence of SAM and the Ki in the presence of MTA) | B* (an IC50 ratio greater than or equal to 3 fold but lower than 10 fold between the IC50 in the HAP1 MTAP-intact cell line and the HAP1 MTAP-deleted cell line)
CC(=O)N1CC(Nc2cc(C(=O)NC[C@H](O)CN3CCc4cc(OCc5ocnc5C)c(F)cc4C3)nc(N3CCCCC3)n2)C1 [Compound 579, 6-[(1-acetylazetidin-3-yl)amino]-N-[(2S)-3-[7-fluoro-6-[(4-methyloxazol-5-yl)methoxy]-3,4-dihydro-1H-isoquinolin-2-yl]-2-hydroxy-propyl]-2-(1-piperidyl)pyrimidine-4-carboxamide] | 50 to 500 nM | 50 to 500 nM | 50 to 500 nM | 1000 to 10000 nM | < 1000 nM | A (a Ki ratio greater than or equal to 10 fold between the Ki in the presence of SAM and the Ki in the presence of MTA) | A* (an IC50 ratio greater than or equal to 10 fold between the IC50 in the HAP1 MTAP-intact cell line and the HAP1 MTAP-deleted cell line)
Cc1ncoc1COc1ccc2c(c1)CCN(C[C@@H](O)CNC(=O)c1ccnc(Nc3cccnc3)c1)C2 [Compound 581, (S)—N-(2-hydroxy-3-(6-((4-methyloxazol-5-yl)methoxy)-3,4-dihydroisoquinolin-2(1H)-yl)propyl)-2-(pyridin-3-ylamino)isonicotinamide] | 50 to 500 nM | ≥ 5000 nM | 50 to 500 nM | 1000 to 10000 nM | 1000 to 10000 nM | A (a Ki ratio greater than or equal to 10 fold between the Ki in the presence of SAM and the Ki in the presence of MTA) | B* (an IC50 ratio greater than or equal to 3 fold but lower than 10 fold between the IC50 in the HAP1 MTAP-intact cell line and the HAP1 MTAP-deleted cell line)
CC(=O)N1CC(Nc2cc(C(=O)NC[C@H](O)CN3CCc4cc(OCc5cnco5)ccc4C3)nc(N3CCOCC3)n2)C1 [Compound 583] | 50 to 500 nM | 500 to 5000 nM | 50 to 500 nM | ≥ 10000 nM | 1000 to 10000 nM | A (a Ki ratio greater than or equal to 10 fold between the Ki in the presence of SAM and the Ki in the presence of MTA) | C* (an IC50 ratio of less than 3 fold between the IC50 in the HAP1 MTAP-intact cell line and the HAP1 MTAP-deleted cell line)
CC(=O)N1CCC(Nc2cc(C(=O)NC[C@H](O)CN3CCc4cc(OCc5ocnc5C)ccc4C3)cc(N3CCCCC3)n2)CC1 [Compound 587, 2-[(1-acetylpiperidin-4-yl)amino]-N-[(2S)-2-hydroxy-3-{6-[(4-methyl-1,3-oxazol-5-yl)methoxy]-1,2,3,4-tetrahydroisoquinolin-2-yl}propyl]-6-(piperidin-1-yl)pyridine-4-carboxamide] | 50 to 500 nM | 500 to 5000 nM | 50 to 500 nM | 1000 to 10000 nM | < 1000 nM | A (a Ki ratio greater than or equal to 10 fold between the Ki in the presence of SAM and the Ki in the presence of MTA) | A* (an IC50 ratio greater than or equal to 10 fold between the IC50 in the HAP1 MTAP-intact cell line and the HAP1 MTAP-deleted cell line)

Continued, in another order:

IC50 (PRMT5 [1]) | IC50 (PRMT5 [2]) | IC50 (PRMT5 [3]) | IC50 (HAP1 MTAP-intact) | IC50 (HAP1 MTAP-deleted) | Compound | SAM/MTA Ratio (PRMT5 [3]) | MTAP Intact/Deleted Ratio (HAP1 MTAP-deleted)
50 to 500 nM | 500 to 5000 nM | 50 to 500 nM | 1000 to 10000 nM | 1000 to 10000 nM | CC(=O)N1CCC(Nc2cc(C(=O)NC[C@H](O)CN3CCc4cc(OCc5ocnc5C)c(F)cc4C3)ncn2)CC1 [Compound 576, 6-[(1-acetyl-4-piperidyl)amino]-N-[(2S)-3-[7-fluoro-6-[(4-methyloxazol-5-yl)methoxy]-3N-dihydro-1H-isoquinolin-2-yl]-2-hydroxy-propyl]pyrimidine-4-carboxamide] | A (a Ki ratio greater than or equal to 10 fold between the Ki in the presence of SAM and the Ki in the presence of MTA) | B* (an IC50 ratio greater than or equal to 3 fold but lower than 10 fold between the IC50 in the HAP1 MTAP-intact cell line and the HAP1 MTAP-deleted cell line)
50 to 500 nM | 500 to 5000 nM | 50 to 500 nM | 1000 to 10000 nM | 1000 to 10000 nM | Cc1ncoc1COc1cc2c(cc1F)CN(C[C@@H](O)CNC(=O)c1ccc3c(c1)CCN(C(=O)c1ccc(Br)cc1)C3)CC2 [Compound 578, 2-(4-bromobenzoyl)-N-[(2S)-3-[7-fluoro-6-[(4-methyloxazol-5-yl)methoxy]-3,4-dihydro-1H-isoquinolin-2-yl]-2-hydroxy-propyl]-3,4-dihydro-1H-isoquinoline-6-carboxamide] | A (a Ki ratio greater than or equal to 10 fold between the Ki in the presence of SAM and the Ki in the presence of MTA) | B* (an IC50 ratio greater than or equal to 3 fold but lower than 10 fold between the IC50 in the HAP1 MTAP-intact cell line and the HAP1 MTAP-deleted cell line)
50 to 500 nM | 500 to 5000 nM | 50 to 500 nM | 1000 to 10000 nM | < 1000 nM | COCCN(C)c1cc(C(=O)NC[C@H](O)CN2CCc3cc(OCc4ocnc4C)ccc3C2)cc(NC2CCN(C(C)=O)CC2)n1 [Compound 582] | A (a Ki ratio greater than or equal to 10 fold between the Ki in the presence of SAM and the Ki in the presence of MTA) | A* (an IC50 ratio greater than or equal to 10 fold between the IC50 in the HAP1 MTAP-intact cell line and the HAP1 MTAP-deleted cell line)
50 to 500 nM | 50 to 500 nM | 50 to 500 nM | ≥ 10000 nM | 1000 to 10000 nM | CC(=O)N1CCC(Nc2cc(C(=O)NC[C@H](O)CN3CCc4cc(OCc5ocnc5C)ccc4C3)cc(N3CCN(C)CC3)n2)CC1 [Compound 584, 2-[(1-acetylpiperidin-4-yl)amino]-N-[(2S)-2-hydroxy-3-{6-[(4-methyl-1,3-oxazol-5-yl)methoxy]-1,2,3,4-tetrahydroisoquinolin-2-yl}propyl]-6-(4-methylpiperazin-1-yl)pyridine-4-carboxamide] | A (a Ki ratio greater than or equal to 10 fold between the Ki in the presence of SAM and the Ki in the presence of MTA) | B* (an IC50 ratio greater than or equal to 3 fold but lower than 10 fold between the IC50 in the HAP1 MTAP-intact cell line and the HAP1 MTAP-deleted cell line)
50 to 500 nM | 500 to 5000 nM | 50 to 500 nM | ≥ 10000 nM | 1000 to 10000 nM | Cc1c(OCc2cnco2)ccc2c1CCN(C[C@@H](O)CNC(=O)c1ccnc(NC3CN(C(=O)C4CCC4)C3)c1)C2 [Compound 586, (S)-2-((1-(cyclobutanecarbonyl)azetidin-3-yl)amino)-N-(2-hydroxy-3-(5-methyl-6-(oxazol-5-ylmethoxy)-3N-dihydroisoquinolin-2(1H)-yl)propyl)isonicotinamide] | A (a Ki ratio greater than or equal to 10 fold between the Ki in the presence of SAM and the Ki in the presence of MTA) | B* (an IC50 ratio greater than or equal to 3 fold but lower than 10 fold between the IC50 in the HAP1 MTAP-intact cell line and the HAP1 MTAP-deleted cell line)
50 to 500 nM | 500 to 5000 nM | 50 to 500 nM | ≥ 10000 nM | 1000 to 10000 nM | Cc1c(OCc2cnco2)ccc2c1CCN(C[C@@H](O)CNC(=O)c1ccnc(NC3CN(C(=O)C4CC4)C3)c1)C2 [Compound 588, (S)-2-((1-(cyclopropanecarbonyl)azetidin-3-yl)amino)-N-(2-hydroxy-3-(5-methyl-6-(oxazol-5-ylmethoxy)-3,4-dihydroisoquinolin-2(1H)-yl)propyl)isonicotinamide] | A (a Ki ratio greater than or equal to 10 fold between the Ki in the presence of SAM and the Ki in the presence of MTA) | C* (an IC50 ratio of less than 3 fold between the IC50 in the HAP1 MTAP-intact cell line and the HAP1 MTAP-deleted cell line)
